Laboratory results taken from paper PMC9950143 (Scientific Reports, 2023).
Like-named read-outs stand apart in the source and are kept apart here.

Assays:
[1] = system: rhinoviruses of serotypes A and B; test: CPE assay, H1 HeLa cells (summary over rhinoviruses); type: cell-based; conditions: Enterovirus, read-out: EC50 range against rhinoviruses of serotypes A and B
[2] = system: Influenza B (B/Brisbane/60/2008); test: CPE assay, MDCK cells; type: cell-based; conditions: Influenza B virus; Influenza B (B/Brisbane/60/2008) [MDCK]; read-out: Antiviral activity EC50
[3] = system: Dengue 4 virus (Dakar_HD_34460); test: microbe, parasite or virus in culture; type: cell-based
[4] = system: Rhinovirus A2; test: CPE assay, H1 HeLa cells; type: cell-based
[5] = system: Ebola virus (Kikwit); test: microbe, parasite or virus in culture; type: cell-based
[6] = system: MARV Ci67; type: cell-based, Marburg virus
[7] = system: Marburg (Kabale); test: microbe, parasite or virus in culture; type: cell-based, Marburg virus
[8] = system: Sudan virus (Gulu); test: microbe, parasite or virus in culture; type: cell-based
[9] = system: Rhinovirus 16; test: CPE assay, H1 HeLa cells; type: cell-based; conditions: Rhinovirus 16 [H1 HeLa]
[10] = system: Japanese encephalitis (14–14-2); test: microbe, parasite or virus in culture; type: cell-based; conditions: Japanese encephalitis (14–14-2) [Huh-7]
[11] = system: Dengue 3 virus (H87); test: microbe, parasite or virus in culture; type: cell-based
[12] = system: Yellow fever virus (17D); test: microbe, parasite or virus in culture; type: cell-based
[13] = system: HCV GT2a replicon; test: HCV subgenomic replicon Renilla luciferase assay, Huh-7-lunet; type: cell-based, hepatitis C virus; conditions: Hepatitis C (2a) [Huh-7-lunet]
[14] = system: Marburg (Musoke); test: microbe, parasite or virus in culture; type: cell-based, Marburg virus
[15] = system: Dengue 4 virus (MY01); test: microbe, parasite or virus in culture; type: cell-based; conditions: Dengue 4 virus (MY01) [Huh-7]
[16] = system: Enterovirus 71; test: CPE assay, RD cells; type: cell-based; conditions: Enterovirus 71 [RD]
[17] = system: Ebola virus (Mayinga); test: microbe, parasite or virus in culture; type: cell-based
[18] = system: SUDV Boniface; type: cell-based, Sudan virus; conditions: read-out: RDV EC50
[19] = system: Enterovirus 68D; conditions: listed as Enterovirus 68D; different cells and/or assay protocols; read-out: Previously reported activity EC50; cited from earlier work
[20] = system: MARV Ci67; test: organism not typed; type: cell-based, Marburg virus; conditions: HeLa; n = 9; read-out: RDV activity against MARV EC50
[21] = system: Rhinovirus 14; test: CPE assay, H1 HeLa cells; type: cell-based; conditions: Rhinovirus 14 [H1 HeLa]
[22] = system: Marburg (Angola); test: microbe, parasite or virus in culture; type: cell-based, Marburg virus
[23] = in vitro; conditions: human
[24] = system: Marburg (Drandema); test: microbe, parasite or virus in culture; type: cell-based, Marburg virus
[25] = Cytotoxicity by nuclei count in HDV assay; conditions: human, Huh7-NTCP cells (HDV assay)
[26] = system: Zika virus (PRVABC59); test: NanoLuc reporter virus infection assay, Huh-7; type: cell-based; conditions: Zika virus (PRVABC59) [Huh-7]
[27] = Multiplex cytotoxicity (calcein AM) in HCV replicon assay; conditions: human, Huh-7-lunet HCV genotype 2a replicon cells
[28] = system: West Nile (NY99); test: microbe, parasite or virus in culture; type: cell-based, West Nile virus
[29] = system: hepatitis E virus (GT3-Kernow C1 p6/Luciferase replicon); test: HEV replicon Gaussia luciferase assay, Huh-7; type: cell-based; conditions: Hepatitis E GT3 Kernow C1 p6/Luc replicon [Huh-7]
[30] = Compound cytotoxicity by MTS dye reduction; conditions: human, H1 HeLa cells
[31] = system: H1 HeLa cells; test: Compound cytotoxicity by MTS dye reduction; conditions: H1 HeLa
[32] = system: Dengue 2 virus (New Guinea C); test: NanoLuc reporter virus infection assay, Huh-7; type: cell-based; conditions: Dengue 2 virus (New Guinea C) [Huh-7]
[33] = system: Dengue 1 virus (Djibouti); test: microbe, parasite or virus in culture; type: cell-based
[34] = system: Yellow fever virus (YFS11); test: microbe, parasite or virus in culture; type: cell-based
[35] = system: all SUDV isolates tested; test: microbe, parasite or virus in culture; type: cell-based; conditions: Sudan ebolavirus, HeLa, read-out: EC50 values against all SUDV isolates tested
[36] = system: HDV genotype 1 virus; test: HDV infection assay (HDAg immunofluorescence), Huh7-NTCP cells; type: cell-based, hepatitis delta virus; conditions: Hepatitis D (Huh7-NTCP)
[37] = system: SUDV Boniface; test: microbe, parasite or virus in culture; type: cell-based, Sudan virus; conditions: Sudan ebolavirus, HeLa; n = 9; read-out: RDV activity against SUDV EC50
[38] = Dengue virus, Huh-7, read-out: Antiviral activity EC50
[39] = Zaire ebolavirus, HeLa, read-out: Antiviral activity EC50
[40] = Filoviridae, HeLa, read-out: Antiviral activity EC50
[41] = n = 1, read-out: Antiviral activity EC50

SMILES: CCC(CC)COC(=O)[C@H](C)N[P@](=O)(OC[C@H]1O[C@@](C#N)(c2ccc3c(N)ncnn23)[C@H](O)[C@@H]1O)Oc1ccccc1 [RDV, Remdesivir]
- EC50 [1]: 385 to 750 nM
- EC50 [2]: > 50000 nM
- Selectivity index (SI) = CC50/EC50 [3]: 176
- EC50 [3, 38]: 190 ± 50 nM
- Selectivity index (SI) = CC50/EC50 [4]: > 22
- EC50 ([4]; Rhinovirus A, n = 1, read-out: Antiviral activity EC50): 450 nM
- Selectivity index (SI) = CC50/EC50 [5]: > 36
- EC50 [5, 39]: 70 ± 8 nM
- maximum fold reduction of RDV EC50 in the presence of favipiravir [6]: ≥ tenfold
- Selectivity index (SI) = CC50/EC50 [7]: > 63
- EC50 [7, 40]: 40 ± 2 nM
- Selectivity index (SI) = CC50/EC50 [8]: > 192
- EC50 ([8]; Sudan ebolavirus, HeLa, n = 1, read-out: Antiviral activity EC50): 60 nM
- EC50 ([9]; Enterovirus, n = 1, read-out: Antiviral activity EC50): 750 nM
- Selectivity index (SI) = CC50/EC50 [9]: > 13
- Selectivity index (SI) = CC50/EC50 [10]: 98
- EC50 ([10]; Japanese encephalitis virus, n = 1, read-out: Antiviral activity EC50): 340 nM
- Selectivity index (SI) = CC50/EC50 [11]: 196
- EC50 [11, 38]: 170 ± 70 nM
- Selectivity index (SI) = CC50/EC50 [12]: 186
- EC50 ([12]; Yellow fever virus, Huh-7, read-out: Antiviral activity EC50): 180 ± 30 nM
- Selectivity index (SI) = CC50/EC50 [13]: 236
- EC50 ([13]; Hepatitis C virus, GT2A, read-out: Antiviral activity EC50): 72 ± 13 nM
- Selectivity index (SI) = CC50/EC50 [14]: > 63
- EC50 [14, 40]: 40 ± 4 nM
- Selectivity index (SI) = CC50/EC50 [15]: 186
- EC50 [15, 41]: 180 nM
- Selectivity index (SI) = CC50/EC50 [16]: 24
- EC50 ([16]; Enterovirus A, n = 1, read-out: Antiviral activity EC50): 140 nM
- Selectivity index (SI) = CC50/EC50 [17]: > 18
- EC50 [17, 39]: 136 ± 17 nM
- EC50 [18]: 212 nM
- EC50 [19]: 100 to 1000 nM
- EC50 [20]: 109 nM
- EC50 ([21]; Enterovirus, read-out: Antiviral activity EC50): 385 ± 318 nM
- Selectivity index (SI) = CC50/EC50 [21]: > 26
- Selectivity index (SI) = CC50/EC50 [22]: > 56
- EC50 [22, 40]: 45 ± 30 nM
- CC50 at 48 h [23]: > 2500 nM
- CC50 ([23]; RDV CC50 (SUDV assay)): > 2500 nM
- Selectivity index (SI) = CC50/EC50 [24]: > 74
- EC50 [24, 40]: 34 ± 4 nM
- CC50 [25]: 8000 to 10000 nM
- Selectivity index (SI) = CC50/EC50 [26]: 128
- EC50 [26, 41]: 260 nM
- CC50 [27]: 17000 ± 3000 nM
- Selectivity index (SI) = CC50/EC50 [28]: 668
- EC50 ([28]; West Nile virus, Huh-7, n = 1, read-out: Antiviral activity EC50): 50 nM
- Selectivity index (SI) [29]: Low (When minimal RDV antiviral activity is observed for a particular virus, low SI is indicated)
- EC50 ([29]; Hepatitis E virus, read-out: Antiviral activity EC50): > 2070 nM
- CC50 [30]: > 10000 nM
- CC50 ([31]; listed as Rhinovirus 14): > 10000 nM
- CC50 ([31]; listed as Rhinovirus 16): > 10000 nM
- Selectivity index (SI) = CC50/EC50 [32]: 145
- EC50 [32, 41]: 230 nM
- Selectivity index (SI) = CC50/EC50 [33]: 108
- EC50 [33, 38]: 310 ± 90 nM
- Selectivity index (SI) = CC50/EC50 [34]: 32
- EC50 ([34]; Yellow fever virus, Huh-7, n = 1, read-out: Antiviral activity EC50): 1060 nM
- EC50 [35]: 120 to 240 nM
- Selectivity index (SI) [36]: Low (When minimal RDV antiviral activity is observed for a particular virus, low SI is indicated)
- EC50 ([36]; Hepatitis delta virus, read-out: Antiviral activity EC50): > 5000 nM
- EC50 [37]: 308 nM
